For six compounds, MIC results are on record in paper PMC11596392, “Enhanced Antibacterial, Anti-Inflammatory, and Antibiofilm Activities of Tryptophan-Substituted Peptides Derived from Cecropin A-Melittin Hybrid Peptide BP100” (Molecules, 2024).

For assay [1], the system named is S. aureus (KCTC 1621). The assay is classed as cell-based, Staphylococcus aureus. How it is done: (§1) To comprehensively evaluate the therapeutic potential of BP100 and the five selected analogs, we assessed their capacity to maintain antibacterial activity in the presence of physiological salts and serum (Table 4). Antibacterial assays were conducted in an environment supplemented with either […] fresh human serum or physiological salts. […] This enhanced stability in physiologically relevant conditions may have important implications for the potential therapeutic applications of these peptide analogs.
(§2) The minimal inhibitory concentrations (MICs) of the peptides against bacterial strains were determined using a modified broth-microdilution method in accordance with the National Committee for Clinical Laboratory Standards (NCCLS) guidelines. Overnight cultures were diluted in cation-adjusted Mueller–Hinton Broth (MHB) to achieve an inoculum density of 2 × 10^6 CFU/mL. A two-fold serial dilution of the peptide solution (100 μL) was introduced into microtiter plates, followed by the addition of 100 μL of bacterial suspension. The plates were then incubated at 37 °C for 24 h to determine the MICs. Wells containing only culture media served as negative controls, while those with added bacteria functioned as positive controls. The MIC, expressed in μM, was defined as the lowest peptide concentration that prevented visible bacterial growth. This protocol was also employed to determine MICs in the presence of physiological salts (150 mM of NaCl, 4.5 mM of KCl, 6 μM of NH4Cl, 1 mM of MgCl2, 2.5 mM of CaCl2, and 4 μM of FeCl3) and 20% human serum to assess the peptides’ efficacy under conditions more closely resembling physiological environments. All experiments were conducted in triplicate and repeated three times independently to ensure reproducibility and statistical significance of the results.

The test system of assay [2] is S. aureus (KCTC 1621). Format: cell-based, Staphylococcus aureus. The settings on record: 10% Human Serum.
In assay [3] the test system is E. coli (KCTC 1682). Format: cell-based, Escherichia coli. As to the method: as §1, §2

Values after ≈ are worked out from the molar mass of the structure shown. Where two headings read alike, the source gives them in different places. Where no end group is shown, it is not given here.

On to `CC[C@H](C)[C@H](NC(=O)[C@H](CCCCN)NC(=O)[C@H](CCCCN)NC(=O)[C@H](Cc1ccccc1)NC(=O)[C@H](CC(C)C)NC(=O)[C@H](CCCCN)NC(=O)[C@@H](N)CCCCN)C(=O)N[C@@H](CC(C)C)C(=O)N[C@@H](CCCCN)C(=O)N[C@@H](Cc1ccc(O)cc1)C(=O)N[C@@H](CC(C)C)C(N)=O` [BP100], for which the minimal inhibitory concentration (MIC) in assay [1] (4 μM of FeCl3), in assay [1] (6 μM of NH4Cl), in assay [1] (1 mM of MgCl2), in assay [1] (2.5 mM of CaCl2), in assay [1] (4.5 mM of KCl) and in assay [1] (150 mM of NaCl) was 16 µM (≈ 22.7 µg/mL) in each case. The MIC worked out at 4 µM in assay [1] (Control, absence of salts); 32 µM (≈ 45.5 µg/mL) in assay [2]; 16 µM (≈ 22.7 µg/mL) in assay [3] (4 μM of FeCl3); 16 µM (≈ 22.7 µg/mL) in assay [3] (6 μM of NH4Cl); 16 µM (≈ 22.7 µg/mL) in assay [3] (1 mM of MgCl2); 16 µM (≈ 22.7 µg/mL) in assay [3] (2.5 mM of CaCl2). Also, the MIC in assay [3] (4.5 mM of KCl) came out at 16 µM (≈ 22.7 µg/mL); in assay [3] (150 mM of NaCl), 16 µM (≈ 22.7 µg/mL); in assay [3] (Control, absence of salts), 4 µM.

In the case of KKLFKKIWKWL-NH2 [BP11], the MIC in assay [1] (4 μM of FeCl3) turned out to be 4 µM; in assay [1] (6 μM of NH4Cl), 4 µM; in assay [1] (1 mM of MgCl2), 4 µM; in assay [1] (2.5 mM of CaCl2) it was 16 µM; in assay [1] (4.5 mM of KCl), 4 µM; in assay [1] (150 mM of NaCl) it was 8 µM. The MIC in assay [1] (Control, absence of salts) came out at 4 µM; in assay [2], 8 µM; in assay [3] (4 μM of FeCl3), 4 µM; in assay [3] (6 μM of NH4Cl) it was 4 µM; in assay [3] (1 mM of MgCl2) it was 8 µM; in assay [3] (2.5 mM of CaCl2), 16 µM. Moreover, the MIC in assay [3] (4.5 mM of KCl) came to 8 µM; in assay [3] (150 mM of NaCl), 16 µM; in assay [3] (Control, absence of salts), 8 µM.

As for KKLWKKILKWL-NH2 [BP8], the MIC in assay [1] (4 μM of FeCl3), in assay [1] (6 μM of NH4Cl), in assay [1] (1 mM of MgCl2), in assay [1] (2.5 mM of CaCl2), in assay [1] (4.5 mM of KCl) and in assay [1] (150 mM of NaCl) was 4 µM in each case. For the same compound, the MIC turned out to be 4 µM in assay [1] (Control, absence of salts); 4 µM in assay [2]; 4 µM in assay [3] (4 μM of FeCl3); 8 µM in assay [3] (6 μM of NH4Cl); 8 µM in assay [3] (1 mM of MgCl2); 16 µM in assay [3] (2.5 mM of CaCl2). Also, the MIC in assay [3] (4.5 mM of KCl) came to 4 µM; in assay [3] (150 mM of NaCl), 8 µM; in assay [3] (Control, absence of salts), 2 µM.

Consider KKWFKKILKWL-NH2 [BP6], for which the MIC in assay [1] (4 μM of FeCl3) is 8 µM; in assay [1] (6 μM of NH4Cl), 4 µM; in assay [1] (1 mM of MgCl2), 4 µM; in assay [1] (2.5 mM of CaCl2), 4 µM; in assay [1] (4.5 mM of KCl), 4 µM; in assay [1] (150 mM of NaCl), 4 µM. For the same compound, the MIC in assay [1] (Control, absence of salts) was 2 µM; in assay [2], 4 µM; in assay [3] (4 μM of FeCl3) it was 16 µM; in assay [3] (6 μM of NH4Cl), 16 µM; in assay [3] (1 mM of MgCl2), 8 µM; in assay [3] (2.5 mM of CaCl2), 16 µM. The MIC in assay [3] (4.5 mM of KCl) turned out to be 4 µM; in assay [3] (150 mM of NaCl), 8 µM; in assay [3] (Control, absence of salts) it was 4 µM.

As to KKWFKKWLKWL-NH2 [BP13], the MIC in assay [1] (4 μM of FeCl3), in assay [1] (6 μM of NH4Cl), in assay [1] (1 mM of MgCl2), in assay [1] (2.5 mM of CaCl2), in assay [1] (4.5 mM of KCl) and in assay [1] (150 mM of NaCl) was 8 µM in each case. Moreover, the MIC in assay [1] (Control, absence of salts) stood at 4 µM; in assay [2] it was 8 µM; in assay [3] (4 μM of FeCl3) it was 8 µM; in assay [3] (6 μM of NH4Cl), 8 µM; in assay [3] (1 mM of MgCl2), 8 µM; in assay [3] (2.5 mM of CaCl2) it was 16 µM. For the same compound, the MIC in assay [3] (4.5 mM of KCl) worked out at 8 µM; in assay [3] (150 mM of NaCl) it was 16 µM; in assay [3] (Control, absence of salts) it was 8 µM.

As to KKWWKKILKYL-NH2 [BP5], the MIC in assay [1] (4 μM of FeCl3), in assay [1] (6 μM of NH4Cl), in assay [1] (1 mM of MgCl2), in assay [1] (2.5 mM of CaCl2), in assay [1] (4.5 mM of KCl) and in assay [1] (150 mM of NaCl) was 4 µM in each case. Further, the MIC in assay [1] (Control, absence of salts) turned out to be 2 µM; in assay [2] it was 4 µM; in assay [3] (4 μM of FeCl3) it was 8 µM; in assay [3] (6 μM of NH4Cl), 4 µM; in assay [3] (1 mM of MgCl2), 4 µM; in assay [3] (2.5 mM of CaCl2) it was 8 µM. The MIC in assay [3] (4.5 mM of KCl) amounted to 4 µM; in assay [3] (150 mM of NaCl), 8 µM; in assay [3] (Control, absence of salts), 2 µM.

Usually MIC stands for the lowest concentration found to suppress growth.
